Assays:
[1] = test system: N. gonorrhoeae; test: N. gonorrhoeae murine vaginal infection model, efficacy; type: in vivo, mouse
Protocol: The N. gonorrhoeae female mouse vaginal model[45] was performed in accordance with the Guide for Care and Use of Laboratory Animals[75]. Animal rooms were maintained at a temperature range of 20–24 °C and humidity between 30% and 70%, with 12 h light/dark cycles. Ovariectomized BALB/c female mice (5–6 weeks, BioLASCO Taiwan Co., Ltd.) were treated with estradiol (0.23 mg/mouse) two days before infection and on the day of infection. Ovariectomized mice were used to avoid staging mice before treating them with estradiol. Beginning two days prior to infection and maintained until the end of the study, animals were treated twice daily with streptomycin (1.2 mg/mouse) and vancomycin (0.6 mg/mouse) each via intraperitoneal (IP) injection and received trimethoprim sulfate in the drinking water (0.4 mg/mL) to control vaginal microflora. Animals were anesthetised with pentobarbital (80 mg/kg), the vagina was rinsed with 50 mM HEPES (pH 7.4), and then inoculated with N. gonorrhoeae in pre-warmed PBS (0.02 mL/mouse containing ~1 × 10^5 CFU).
Control groups received either a single IP injection of ceftriaxone or 5% dextrose (vehicle) twice daily. Animals were sacrificed via CO2 asphyxiation at either 2 h (baseline), 26 and/or 50 h post-infection. Vaginal lavage was performed twice with 200 µL GC broth containing 0.05% saponin to recover bacteria. Bacterial burden in the lavage fluids was determined by performing 10-fold serial dilutions and plating on chocolate agar plates. Four strains were assessed using the model; ATCC 700825 is naturally streptomycin-resistant, whereas AR Bank0179-15, AR Bank0181-17 and WHO X-07 are derivatives of AR Bank0179, AR Bank0181 and WHO X, respectively, that were engineered for streptomycin resistance for use in the model.

[2] = test system: S. aureus ATCC 29213; test: S. aureus neutropenic murine thigh infection model; type: in vivo, mouse; details: for reduction in thighs: dosed as Debio 1453 P; for Mean Diff. 0h vs. treatment, log10 CFU: S. aureus ATCC 29213, daily dose
Protocol: The S. aureus neutropenic murine thigh infection model was performed in accordance with the Guide for Care and Use of Laboratory Animals[75]. Animal rooms were maintained at a temperature range of 20–24 °C and humidity between 30% and 70%, with 12 h light/dark cycles. Female ICR mice (BioLASCO Taiwan Co., Ltd.) were rendered neutropenic via IP injection of cyclophosphamide four days before infection (150 mg/kg) and again one day before infection (100 mg/kg). Animals were anaesthetised with isoflurane (3–5%), then inoculated intramuscularly with S. aureus ATCC 29213 (~1 × 10^5 CFU/mouse). […] Animals were sacrificed via CO2 asphyxiation at either 2 h (baseline), 26 and/or 50 h post-infection. Thigh tissues were harvested and homogenised in 3 mL sterile PBS (pH 7.4). Bacterial burdens were determined by performing 10-fold serial dilutions and plating on nutrient agar plates.

With `Cc1c(CN(C)C(=O)/C=C/c2cnc3c(c2)N[C@H](C)[C@H](O)C(=O)N3)oc2ccccc12` [Debio 1453] the “Mean Diff. 0h vs. treatment, log10 CFU” value ([1]; AR Bank0179-15, 20 µg/mL Debio 1453, 24h) was -1.082, the “Mean Diff. 0h vs. treatment, log10 CFU” value ([1]; AR Bank0179-15, 20 µg/mL Debio 1453, 48h) was -1.16 and the “Mean Diff. 0h vs. treatment, log10 CFU” value ([1]; AR Bank0179-15, 40 µg/mL Debio 1453, 24h) was -0.242. For the same molecule, the “Mean Diff. 0h vs. treatment, log10 CFU” value ([1]; AR Bank0179-15, 40 µg/mL Debio 1453, 48h) was 1.58, the “Mean Diff. 0h vs. treatment, log10 CFU” value ([1]; AR Bank0179-15, 60 µg/mL Debio 1453, 24h) was 1.644 and the “Mean Diff. 0h vs. treatment, log10 CFU” value ([1]; AR Bank0179-15, 60 µg/mL Debio 1453, 48h) was 2.864. For the same molecule, the “Mean Diff. 0h vs. treatment, log10 CFU” value ([1]; AR Bank0179-15, 80 µg/mL Debio 1453, 24h) was 1.958, the “Mean Diff. 0h vs. treatment, log10 CFU” value ([1]; AR Bank0179-15, 80 µg/mL Debio 1453, 48h) was 2.964 and the “Mean Diff. 0h vs. treatment, log10 CFU” value ([1]; AR Bank0179-15, 24h) was 3.186. For the same molecule, the “Mean Diff. 0h vs. treatment, log10 CFU” value ([1]; AR Bank0179-15, 48h) was 3.186, the “Mean Diff. 0h vs. treatment, log10 CFU” value ([1]; AR Bank0181-17, 40 µg/mL Debio 1453, 24h) was -1.694 and the “Mean Diff. 0h vs. treatment, log10 CFU” value ([1]; AR Bank0181-17, 40 µg/mL Debio 1453, 48h) was -0.796. For the same molecule, the “Mean Diff. 0h vs. treatment, log10 CFU” value ([1]; AR Bank0181-17, 60 µg/mL Debio 1453, 24h) was -1.094, the “Mean Diff. 0h vs. treatment, log10 CFU” value ([1]; AR Bank0181-17, 60 µg/mL Debio 1453, 48h) was -0.998 and the “Mean Diff. 0h vs. treatment, log10 CFU” value ([1]; AR Bank0181-17, 80 µg/mL Debio 1453, 24h) was -0.986. The “Mean Diff. 0h vs. treatment, log10 CFU” value ([1]; AR Bank0181-17, 80 µg/mL Debio 1453, 48h) was -0.852, the “Mean Diff. 0h vs. treatment, log10 CFU” value ([1]; AR Bank0181-17, 320 µg/mL Debio 1453, 24h) was 3.42 and the “Mean Diff. 0h vs. treatment, log10 CFU” value ([1]; AR Bank0181-17, 320 µg/mL Debio 1453, 48h) was 3.56. For the same molecule, the “Mean Diff. 0h vs. treatment, log10 CFU” value ([1]; AR Bank0181-17, 24h) was 0.842, the “Mean Diff. 0h vs. treatment, log10 CFU” value ([1]; AR Bank0181-17, 48h) was 1.134 and the “Mean Diff. 0h vs. treatment, log10 CFU” value ([1]; ATCC 700825, 20 µg/mL Debio 1453, 24h) was -0.874. The “Mean Diff. 0h vs. treatment, log10 CFU” value ([1]; ATCC 700825, 20 µg/mL Debio 1453, 48h) was -1.386, the “Mean Diff. 0h vs. treatment, log10 CFU” value ([1]; ATCC 700825, 40 µg/mL Debio 1453, 24h) was -0.322 and the “Mean Diff. 0h vs. treatment, log10 CFU” value ([1]; ATCC 700825, 40 µg/mL Debio 1453, 48h) was -0.946. The “Mean Diff. 0h vs. treatment, log10 CFU” value ([1]; ATCC 700825, 60 µg/mL Debio 1453, 24h) was 1.296, the “Mean Diff. 0h vs. treatment, log10 CFU” value ([1]; ATCC 700825, 60 µg/mL Debio 1453, 48h) was 2.468 and the “Mean Diff. 0h vs. treatment, log10 CFU” value ([1]; ATCC 700825, 80 µg/mL Debio 1453, 24h) was 2.796. The “Mean Diff. 0h vs. treatment, log10 CFU” value ([1]; ATCC 700825, 80 µg/mL Debio 1453, 48h) was 3.082, the “Mean Diff. 0h vs. treatment, log10 CFU” value ([1]; ATCC 700825, 24h) was 2.942 and the “Mean Diff. 0h vs. treatment, log10 CFU” value ([1]; ATCC 700825, 48h) was 3.082. For the same molecule, the “Mean Diff. 0h vs. treatment, log10 CFU” value ([1]; WHO X-07, 40 µg/mL Debio 1453, 24h) was -1.944, the “Mean Diff. 0h vs. treatment, log10 CFU” value ([1]; WHO X-07, 40 µg/mL Debio 1453, 48h) was -2.102 and the “Mean Diff. 0h vs. treatment, log10 CFU” value ([1]; WHO X-07, 60 µg/mL Debio 1453, 24h) was -1.81. The “Mean Diff. 0h vs. treatment, log10 CFU” value ([1]; WHO X-07, 60 µg/mL Debio 1453, 48h) was -1.666, the “Mean Diff. 0h vs. treatment, log10 CFU” value ([1]; WHO X-07, 80 µg/mL Debio 1453, 24h) was -1.492 and the “Mean Diff. 0h vs. treatment, log10 CFU” value ([1]; WHO X-07, 80 µg/mL Debio 1453, 48h) was -1.246. For the same molecule, the “Mean Diff. 0h vs. treatment, log10 CFU” value ([1]; WHO X-07, 320 µg/mL Debio 1453, 24h) was 3.01, the “Mean Diff. 0h vs. treatment, log10 CFU” value ([1]; WHO X-07, 320 µg/mL Debio 1453, 48h) was 3.322 and the “Mean Diff. 0h vs. treatment, log10 CFU” value ([1]; WHO X-07, 24h) was 2.532. For the same molecule, the “Mean Diff. 0h vs. treatment, log10 CFU” value ([1]; WHO X-07, 48h) was 3.114, the “reduction compared to the start of treatment (0 h)” value ([1]; each of four strains, dosed as Debio 1453 P, limit of detection by 48 h for at least one dose level) was ~ 3 log10CFU/mL and the reduction in thighs ([2]; 24 h) was greater than 1 log10CFU/mL. For the same molecule, the reduction in thighs ([2]; 48 h) was greater than 2 log10CFU, the “Mean Diff. 0h vs. treatment, log10 CFU” value ([2]; 20 µg/mL Debio 1453, 24h) was -1.552 and the “Mean Diff. 0h vs. treatment, log10 CFU” value ([2]; 20 µg/mL Debio 1453, 48h) was -2.396. For the same molecule, the “Mean Diff. 0h vs. treatment, log10 CFU” value ([2]; 40 µg/mL Debio 1453, 24h) was -0.054, the “Mean Diff. 0h vs. treatment, log10 CFU” value ([2]; 40 µg/mL Debio 1453, 48h) was -1.464 and the “Mean Diff. 0h vs. treatment, log10 CFU” value ([2]; 60 µg/mL Debio 1453, 24h) was 1.22. The “Mean Diff. 0h vs. treatment, log10 CFU” value ([2]; 60 µg/mL Debio 1453, 48h) was 1.476, the “Mean Diff. 0h vs. treatment, log10 CFU” value ([2]; 80 µg/mL Debio 1453, 24h) was 1.132 and the “Mean Diff. 0h vs. treatment, log10 CFU” value ([2]; 80 µg/mL Debio 1453, 48h) was 2.658. The “Mean Diff. 0h vs. treatment, log10 CFU” value ([2]; 160 µg/mL Debio 1453, 24h) was 1.558 and the “Mean Diff. 0h vs. treatment, log10 CFU” value ([2]; 160 µg/mL Debio 1453, 48h) was 2.682.

From publication PMC12446476 (Nature Communications, 2025)
